The source of these data is patent US20260159499A1, “COMPOUND AS FAK INHIBITOR AND USE THEREOF” (WIGEN BIOMEDICINE TECHNOLOGY (SHANGHAI) CO., LTD., priority 2021, published 2026).

The target in one data set is FAK recombinant protein (Homo sapiens, UniProt Q05397). Kind of data set: Inhibitory activity against FAK enzyme. The data set is classed as biochemical. The settings on record: TK substrate, ATP. Here is the method: The compound serially diluted with DMSO and a FAK recombinant protein were mixed, and the mixture was left to stand at room temperature for 10 min. A biotin-labeled TK substrate (TK) and ATP were then added. […] After the mixture was incubated at room temperature for 1 h, the fluorescence intensity at 615 nm and 665 nm was measured. The ratio of the fluorescence intensity at 665 nm and 615 nm was calculated. The inhibition percentages and IC50 of the compounds were calculated compared to the DMSO control group.
Sequence of FAK recombinant protein (Q05397 whole entry, species assumed): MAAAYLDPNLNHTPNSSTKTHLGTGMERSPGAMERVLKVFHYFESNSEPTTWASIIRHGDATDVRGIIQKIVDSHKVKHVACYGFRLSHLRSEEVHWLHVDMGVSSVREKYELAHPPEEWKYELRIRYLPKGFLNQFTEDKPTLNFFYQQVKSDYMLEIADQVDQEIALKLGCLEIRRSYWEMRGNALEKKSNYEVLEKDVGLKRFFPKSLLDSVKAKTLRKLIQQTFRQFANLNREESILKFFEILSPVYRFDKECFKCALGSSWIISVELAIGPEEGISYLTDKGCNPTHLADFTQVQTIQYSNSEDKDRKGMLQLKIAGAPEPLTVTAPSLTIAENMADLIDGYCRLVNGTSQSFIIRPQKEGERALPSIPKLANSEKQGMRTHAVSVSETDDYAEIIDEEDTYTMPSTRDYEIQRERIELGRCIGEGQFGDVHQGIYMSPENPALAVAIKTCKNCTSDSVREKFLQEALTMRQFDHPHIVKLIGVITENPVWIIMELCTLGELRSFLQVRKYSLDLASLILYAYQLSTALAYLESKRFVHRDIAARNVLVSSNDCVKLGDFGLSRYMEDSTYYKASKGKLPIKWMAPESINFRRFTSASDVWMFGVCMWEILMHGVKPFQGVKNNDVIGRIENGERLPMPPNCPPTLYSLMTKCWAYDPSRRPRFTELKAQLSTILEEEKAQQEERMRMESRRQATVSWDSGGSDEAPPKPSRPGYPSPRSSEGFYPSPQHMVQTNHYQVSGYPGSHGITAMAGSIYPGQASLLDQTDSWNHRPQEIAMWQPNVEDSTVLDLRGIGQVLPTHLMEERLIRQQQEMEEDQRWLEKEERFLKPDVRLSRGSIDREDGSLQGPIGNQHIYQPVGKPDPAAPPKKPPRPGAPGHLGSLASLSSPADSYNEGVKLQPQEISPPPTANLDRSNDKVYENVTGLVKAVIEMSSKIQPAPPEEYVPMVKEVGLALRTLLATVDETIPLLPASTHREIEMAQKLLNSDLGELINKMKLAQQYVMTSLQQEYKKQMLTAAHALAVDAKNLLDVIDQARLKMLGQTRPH

In data set [1] the test system is PC3 cells. Nature of the data set: PC3 cell proliferation, 3D activity detection. The data set is classed as cell-based, human. The settings on record: Homo sapiens, PC-3, 336 h, PC3, 3D culture, 14 days, read-out: 3D IC50 against PC3 cells. Here is the method:
3D activity detection: PC3 cells were seeded in a 96-well plate at 1200 cells/well, and 3D culture was performed. 14 days after the compound serially diluted was added, the growth of the cells was determined. The inhibition percentage and IC50 of the compound were calculated compared to the DMSO control group.

The test system of data set [2] is PC3 cells. Nature of the data set: PC3 cell proliferation, 2D activity detection. The settings on record: Homo sapiens, PC-3, PC3, 2D, 72 h, read-out: 2D IC50 against PC3 cells. Type of data set: cell-based, human. Here is the method:
2D activity detection: 1200 PC3 cells were seeded in a 96-well plate. After overnight adherence culture, the compound serially diluted was added. 72 h after addition, Cell Titer-Lumi (Beyotime C0068XL) was added to measure the ATP content in the cells. The growth of the cells was evaluated, and IC50 of the compounds against cell growth was calculated.

Data set [3] in a line: In vivo pharmacokinetic experiment in mice. Set-up: species or system CD-1 female mice. The settings on record: female, mouse, plasma, CD-1 mice. How it is done:
On the day of the experiment, animals in the intravenous group were administered the corresponding compound by single injection via the tail vein at an administration volume of 10 mL/kg, and animals in the oral group were administered the corresponding compound by single intragastric injection at an administration volume of 10 mL/kg. The animals were weighed before administration, and the administration volume was calculated according to the body weight. […] About 200 μL of whole blood was collected through the orbital venous plexus at each time point and used to prepare plasma for concentration determination by high-performance liquid chromatography-tandem mass spectrometry (LC-MS/MS). The plasma concentrations were processed using a non-compartmental model of Winnolin pharmacokinetic software, and the pharmacokinetic parameters were calculated using a linear-log trapezoidal method.

The subject of data set [4] is PC3 cells. Kind of data set: Inhibition of PC3 cell adherence. The settings on record: Homo sapiens, PC-3; PC3, 4 h treatment; read-out: Inhibitory activity against PC-3 cell adherence IC50. Type of data set: cell-based. How it is done:
PC3 cells were added at 8000 cells/well. 4 h after the cells were treated with the compound, the number of adherent cells was counted. The inhibition percentages and IC50 of the compounds were calculated compared to the DMSO group.

For orientation: IC50 means the concentration at which inhibition is half-maximal. One may read the AUC(0-t) as exposure summed from dosing to a finite time, without extrapolation to infinity. Lower therefore signals low exposure. Broadly, the clearance is a measure of how efficiently the substance is removed, as volume per time. The term half-life denotes the time in which the quantity being followed falls by half. As a reminder, the Cmax is the peak of the concentration-time curve. The Tmax is the time at which the peak concentration occurs. In general, bioavailability refers to dose-corrected exposure relative to a reference, in per cent. Turning to `COc1cc(C(=O)NC2CCC3(CC2)CN(C)C3)c(F)cc1Nc1ncc(C(F)(F)F)c(Oc2cccc3c2C(=O)N(C)C3)n1` [Compound 20], the IC50 on FAK recombinant protein was less than 10 nM. Besides, the IC50 in the data set with PC3 cells [1] (numeric (mean where marked *)) is 4.23 nM. The IC50 with PC3 cells [2] (numeric) was more than 10000 nM. For the same compound, in data set [3] (injection (IV) 2 mg/kg), the AUC(0-t) came out at 622 ng·h/mL, the clearance was 26.8 mL/min/kg and the half-life was 3.46 h. Also, in data set [3] (injection (IV) 2 mg/kg, read-out: Vdss), the Vd amounted to 4.99 L/kg. Further, in data set [3] (oral administration 10 mg/kg), the AUC(0-t) stood at 934 ng·h/mL, the peak level (Cmax) was 190 ng/mL, the Tmax came out at 2 h and the half-life is 1.97 h. Also, the bioavailability in data set [3] (oral administration 10 mg/kg vs injection) is 30%.

`COc1cc(C(=O)NC2CCC23CCN(C)CC3)c(F)cc1Nc1ncc(C(F)(F)F)c(Oc2cccc3c2C(=O)N(C)C3)n1` (stereo not shown) [Compound 21]: the IC50 on FAK recombinant protein was 10 to 50 nM; with PC3 cells [1] (numeric (mean where marked *)), 1.32 nM; in the data set on PC3 cells [4], 8.5 nM; with PC3 cells [2] (numeric), more than 10000 nM.

For the compound `COc1cc(C(=O)N2CC3(CCN(C)CC3)C2)c(F)cc1Nc1ncc(C(F)(F)F)c(Oc2cccc3c2C(=O)N(C)C3)n1` [Compound 34], the IC50 on FAK recombinant protein is less than 10 nM; in the data set with PC3 cells [1] (numeric (mean where marked *)), 41.3 nM; with PC3 cells [4], 86 nM; in the data set with PC3 cells [2] (class symbol) it was more than 2000 nM.

Turning to `COc1cc(N2CC3(CCN(C)CC3)CC2=O)c(F)cc1Nc1ncc(C(F)(F)F)c(Oc2cccc3c2C(=O)N(C)C3)n1` [Compound 62], the IC50 on FAK recombinant protein is less than 10 nM; in the data set on PC3 cells [1] (class symbol), less than 5 nM; in the data set on PC3 cells [4] it was 2.88 nM; in the data set on PC3 cells [2] (class symbol) it was more than 2000 nM.

For `COc1cc(N2CC3(CCN(C)C3)OC2=O)c(F)cc1Nc1ncc(C(F)(F)F)c(Oc2cccc3c2C(=O)N(C)C3)n1` (stereo not shown) [Compound 64], the IC50 on FAK recombinant protein was less than 10 nM; in the data set with PC3 cells [1] (class symbol) it was 5 to 50 nM; in the data set with PC3 cells [4], 3.33 nM; in the data set on PC3 cells [2] (class symbol), more than 2000 nM.

Take `COc1cc(N2CC3(CCN(C)C3)OCC2=O)c(F)cc1Nc1ncc(C(F)(F)F)c(Oc2cccc3c2C(=O)N(C)C3)n1` (stereo not shown) [Compound 66]: the IC50 at FAK recombinant protein is less than 10 nM; with PC3 cells [1] (class symbol) it was more than 50 nM; with PC3 cells [4], 7.01 nM; in the data set on PC3 cells [2] (class symbol) it was more than 2000 nM.

With `COc1cc(N2CCC3(CC2)CN(C)C3)c(F)cc1Nc1ncc(C(F)(F)F)c(Oc2cccc3c2C(=O)N(C)C3)n1` [Compound 91], the IC50 on FAK recombinant protein was less than 10 nM; with PC3 cells [1] (class symbol) it was less than 5 nM; in the data set on PC3 cells [2] (class symbol), more than 2000 nM.

On to `COc1cc(N2CCC3(CC2)CN(C)C3)ccc1Nc1ncc(C(F)(F)F)c(Oc2cccc3c2C(=O)N(C)C3)n1` [Compound 92], for which the IC50 on FAK recombinant protein is less than 10 nM; in the data set on PC3 cells [1] (numeric (mean where marked *)) it was 0.83 nM; with PC3 cells [4] it was 3.05 nM; in the data set with PC3 cells [2] (numeric), more than 10000 nM.

As to `COc1cc(N2CCC3(CCN(C)CC3)CC2)c(F)cc1Nc1ncc(C(F)(F)F)c(Oc2cccc3c2C(=O)N(C)C3)n1` [Compound 93], the half-inhibitory concentration (IC50) at FAK recombinant protein is less than 10 nM; in the data set with PC3 cells [1] (class symbol) it was less than 5 nM; with PC3 cells [2] (class symbol), more than 2000 nM.

Turning to `COc1cc(N2CCC3(CCN(C)CC3)CC2)ccc1Nc1ncc(C(F)(F)F)c(Oc2cccc3c2C(=O)N(C)C3)n1` [Compound 94], the IC50 at FAK recombinant protein was less than 10 nM; in the data set on PC3 cells [1] (class symbol), less than 5 nM; in the data set with PC3 cells [4], 2.58 nM; in the data set with PC3 cells [2] (class symbol), more than 2000 nM.

Consider `COc1cc(N2CCC3(CCN(C)C3)CC2)ccc1Nc1ncc(C(F)(F)F)c(Oc2cccc3c2C(=O)N(C)C3)n1` [Compound 95], for which the IC50 at FAK recombinant protein is less than 10 nM; in the data set with PC3 cells [1] (class symbol), less than 5 nM; in the data set with PC3 cells [2] (class symbol), more than 2000 nM.

For the compound `COc1cc(N2CCC3(CCN(C)CC3)C2)ccc1Nc1ncc(C(F)(F)F)c(Oc2cccc3c2C(=O)N(C)C3)n1` [Compound 96], the IC50 on FAK recombinant protein is less than 10 nM; with PC3 cells [1] (class symbol), less than 5 nM; with PC3 cells [2] (class symbol) it was more than 2000 nM.

`COc1cc(N2CCC23CCN(C)CC3)ccc1Nc1ncc(C(F)(F)F)c(Oc2cccc3c2C(=O)N(C)C3)n1` [Compound 97]: the IC50 at FAK recombinant protein was less than 10 nM; in the data set with PC3 cells [1] (class symbol) it was less than 5 nM; in the data set on PC3 cells [2] (class symbol) it was more than 2000 nM.

Consider `COc1cc(N2CCC3(CCN(C)C3)C2)ccc1Nc1ncc(C(F)(F)F)c(Oc2cccc3c2C(=O)N(C)C3)n1` (stereo not shown) [Compound 98], for which the figures for the IC50 at FAK recombinant protein, with PC3 cells [1] (class symbol) and in the data set with PC3 cells [2] (class symbol) were less than 10 nM, less than 5 nM and more than 2000 nM, respectively.

For `CCN1CCC2(CC1)CN(c1ccc(Nc3ncc(C(F)(F)F)c(Oc4cccc5c4C(=O)N(C)C5)n3)c(OC)c1)C2` [Compound 103], the IC50 was less than 10 nM on FAK recombinant protein, less than 5 nM with PC3 cells [1] (class symbol) and more than 2000 nM in the data set with PC3 cells [2] (class symbol).

Consider `COc1cc(N2CC3(CCN(C4CC4)CC3)C2)ccc1Nc1ncc(C(F)(F)F)c(Oc2cccc3c2C(=O)N(C)C3)n1` [Compound 104], for which the results for the IC50 at FAK recombinant protein, with PC3 cells [1] (class symbol) and with PC3 cells [2] (class symbol) were less than 10 nM, less than 5 nM and more than 2000 nM, respectively.

Consider `COc1cc(N2CC3(CCN(C4CCC4)CC3)C2)ccc1Nc1ncc(C(F)(F)F)c(Oc2cccc3c2C(=O)N(C)C3)n1` [Compound 105], for which the IC50 is less than 10 nM at FAK recombinant protein, less than 5 nM in the data set with PC3 cells [1] (class symbol) and more than 2000 nM with PC3 cells [2] (class symbol).

On to `COc1cc(N2CC3(CCN(CC4CC4)CC3)C2)ccc1Nc1ncc(C(F)(F)F)c(Oc2cccc3c2C(=O)N(C)C3)n1` [Compound 106], for which the IC50 was less than 10 nM on FAK recombinant protein, less than 5 nM in the data set on PC3 cells [1] (class symbol) and more than 2000 nM in the data set on PC3 cells [2] (class symbol).

Consider `COc1cc(N2CC3(CCNCC3)C2)c(F)cc1Nc1ncc(C(F)(F)F)c(Oc2cccc3c2C(=O)N(C)C3)n1` [Compound 107, 7-((2-((5-fluoro-2-methoxy-4-(2,7-diazaspiro[3.5]non-2-yl)phenyl)amino)-5-(trifluoromethyl)pyrimidin-4-yl)oxy)-2-methylisoindolin-1-one], for which the half-maximal inhibitory concentration (IC50) on FAK recombinant protein is less than 10 nM; in the data set with PC3 cells [1] (class symbol), less than 5 nM; with PC3 cells [2] (class symbol) it was more than 2000 nM.

For the compound `[2H]C([2H])([2H])N1CCC2(CC1)CN(c1ccc(Nc3ncc(C(F)(F)F)c(Oc4cccc5c4C(=O)N(C)C5)n3)c(OC)c1)C2` [Compound 109, 7-((2-((2-methoxy-4-(7-(methyl-d3)-2,7-diazaspiro[3.5]non-2-yl)phenyl)amino)-5-(trifluoromethyl)pyrimidin-4-yl)oxy)-2-methylisoindolin-1-one], the figures for the IC50 at FAK recombinant protein, in the data set on PC3 cells [1] (class symbol) and in the data set with PC3 cells [2] (class symbol) were less than 10 nM, less than 5 nM and more than 2000 nM, respectively.

In the case of `COc1cc(N2CC3(CCN(C)CC3)C2)c(F)cc1Nc1ncc(Cl)c(Oc2cccc3c2C(=O)N(C)C3)n1` [Compound 110, 7-((5-chloro-2-((5-fluoro-2-methoxy-4-(7-methyl-2,7-diazaspiro[3.5]non-2-yl)phenyl)amino)pyrimidin-4-yl)oxy)-2-methylisoindolin-1-one], the results for the IC50 on FAK recombinant protein, with PC3 cells [1] (class symbol) and in the data set with PC3 cells [2] (class symbol) were less than 10 nM, less than 5 nM and more than 2000 nM, respectively.

As to `COc1cc(N2CC3(CCN(C)CC3)C2)ccc1Nc1ncc(F)c(Oc2cccc3c2C(=O)N(C)C3)n1` [Compound 115], the IC50 at FAK recombinant protein is less than 10 nM; in the data set on PC3 cells [1] (numeric (mean where marked *)), 67 nM; with PC3 cells [2] (class symbol), more than 2000 nM.

Turning to `COc1cc(N2CCC3(CC2)CN(C)C3)ccc1Nc1ncc(Cl)c(Oc2cccc3c2C(=O)N(C)C3)n1` [Compound 116], the IC50 at FAK recombinant protein is less than 10 nM; with PC3 cells [1] (class symbol), less than 5 nM; in the data set with PC3 cells [2] (class symbol), more than 2000 nM.

`COc1cc(N2CCC3(CC2)CN(C)C3)ccc1Nc1ncc(Br)c(Oc2cccc3c2C(=O)N(C)C3)n1` [Compound 117]: the IC50 at FAK recombinant protein is less than 10 nM; in the data set on PC3 cells [1] (class symbol) it was less than 5 nM; in the data set with PC3 cells [2] (class symbol), more than 2000 nM.
